From patent US20230390215A1 (AgoneX Biopharmaceuticals, Inc., priority 2021, published 2023)

Legend:
[1] = system: subject suffering from migraine headaches
Protocol: The patch is applied to the subject's skin for 4 hours. […] The size of the patch can vary from ¼ inch by ¼ inch to 1 inch by 1 inch depending on the desired dosage to be administered.
A subject suffering from migraine headaches is administered a 2″×2″ patch with a gel concentration of 30 μg/ml over a 24 hour period.
A subject suffering from migraine headaches is administered a 2″×2″ patch with a gel concentration of 2.7 μg/ml over a 24 hour period.

[2] = system: subject suffering from Alzheimer's disease; conditions: Example 4: transdermal patch, 10 μg/mL, applied every day for two hours a day over a month
Protocol: A subject suffering from Alzheimer's disease is treated with a transdermal patch as described herein. […] The treatment regimen occurred over the course of a month.

For `Cl.Cl.NCCc1c[nH]cn1` [histamine dihydrochloride], the migraine events ([1]; Example 3: transdermal patch comprising 30 μg/mL, applied to skin for 4 hours during a migraine event) was “treated or reduced”, the “migraine headaches (intensity and duration)” value ([1]; Example 6: 2″×2″ patch, gel concentration 2.7 μg/ml, 24 hour period) was “reduced in both intensity and duration” and the “Alzheimer's disease symptoms” value [2] was “treated or reduced”.
